This note sets out measurements from patent US8263642B2, “Antimicrobial compounds and methods of use thereof” (Vanderbilt University, priority 2008, dated 2012).

Assay [1] relates to HssRS-dependent hrtAB expression. The assay can be described thus: Luminescence-based assay to monitor HssRS-dependent hrtAB expression (phrtABlux reporter), Newman. The class given is cell-based, Staphylococcus aureus. The settings on record: Newman; for activation at 0.0825 µM: Staphylococcus aureus, NEWMAN, read-out: % Lumi, luminescence induced by the compound compared to the heme control (82.5 nM) in the same plate; for Luminescence: raw luminescence value obtained in a luminometer. The protocol:
(§1) With reference to Table 1, “Luminescence” refers to the raw luminescence value obtained in a luminomter. “Control (82.5 nm)” refers to the luminescence value obtained from heme at 82.5 nM as a positive control in the same plate as the experimental. “% lum” is the percentage of luminescence induced by the compound as compared to the heme control in the same plate. […] All of these assays are described in the application. […] “N/T” indicates the test was not performed.
A hrtAB-driven expression system was created in the pXen vector system (Xenogen) (Francis, K. P., D. Joh, C. Bellinger-Kawahara, M. J. Hawkinson, T. F. Purchio, and P. R. Contag. 2000. Monitoring bioluminescent Staphylococcus aureus infections in living mice using a novel luxABCDE construct. Infect Immun 68:3594-3600). This vector contains a promoterless luxCDABE operon from Photorabdus luminescens which produces blue green light when expressed. The luxCDABE encodes for a fatty acid reductase (LuxCDE) that produces a long chain fatty aldehyde which, when combined with cellular flavin mononucleotide, is oxidized by a luciferase (LuxAB) to produce light. Therefore, this system is useful in that it bypasses the need for substrate addition and is capable of generating light in the absence of any added reagents. Furthermore, the luminescent signal produced by the combined activities of LuxAB and LuxCDE is of sufficient intensity to be visualized in unmanipulated intact bacteria.
To establish an assay that measures HssRS-dependent expression of luxCDABE, the promoter for hrtAB upstream of luxCDABE was cloned and transformed this vector (phrtABlux) into wildtype and ΔhssR S. aureus. A promoterless vector (plux) and a plasmid containing luxCDABE under the control of a constitutive promoter (psrtAlux) (Mazmanian, S. K., G. Liu, H. Ton-That, and O. Schneewind. 1999. “Staphylococcus aureus sortase, an enzyme that anchors surface proteins to the cell wall.” Science 285:760-763) were included as negative and positive controls, respectively. Initially, wildtype S. aureus harboring either plux, phrtABlux, or psrtAlux were plated on solid medium that either lacked heme or contained 4 μM heme. Only wildtype S. aureus containing psrtAlux produced light on solid media regardless of the presence or absence of heme. […] Light was not produced by bacteria containing plux in either condition.
To adapt this system for a HTS to measure ligand recognition by HssRS, luminescence of wildtype and ΔhssR harboring the above listed plasmids in liquid media with or without heme was measured. […] Taken together, these experiments establish a whole cell […] assay that can identify small molecule modifiers of HssRS. This screen, in some aspects, can identify molecules that can be used as molecular probes in structure-function analyses to determine the mechanism by which S. aureus sense host heme.
Upon staphylococcal exposure to heme, HssRS senses heme and activates expression of hrtAB. This process can be measured using a reporter assay that employs a vector encoding the light-producing luxCDABE operon under the control of the hrtAB promoter. This assay results in whole cell luminescence upon HssRS-dependent activation of hrtAB, forming the foundation for the development of an assay suitable for high-throughput screens for small molecule activators of HssRS.
To develop an automated HTS format, S. aureus wildtype and ΔhssR harboring reporter constructs (psrtAlux, phrtAlux, plux) can be grown for 15 hours at 37° C. in tryptic soy broth (TSB) containing 10 μg/ml chloramphenicol. The addition of chloramphenicol is useful to ensure that the staphylococci propagate the reporter plasmid upon cell division. Following growth, bacterial cultures can be normalized and 2×10^7 cells (approximately 2 μl) can be added to individual wells of black walled, clear bottomed, 96-well plates. […]

Assay [2] has as its system hrtAB-driven expression of the xylE reporter gene. The assay can be described thus: XylE reporter assay (hrtAB promoter-xylE), Newman. It counts as cell-based, Staphylococcus aureus. The following applies: for XylE (0.05): level of XylE induction at 0.05 uM of the compound; for XylE (0.5): level of XylE induction at 0.5 uM of the compound; for XylE (5.0): level of XylE induction at 5.0 uM of the compound; for XylE (50.0): level of XylE induction at 50.0 uM of the compound. The protocol:
as §1
Compounds that activate HssRS-driven hrtAB expression in the luciferase-based screen can be subjected to two separate counter screens to confirm these compounds as active hits. First, compounds of interest can be tested for their ability to activate expression of hrtAB in the XylE expression assay described hereinbelow. This is an in vitro assay that measures hrtAB-driven expression of the xylE reporter gene. The XylE-based reporter assay utilizes slightly more manipulations than the primary luciferase-based screen. […] It should be appreciated that a shortcoming of this counter screen is that it measures reporter gene expression, which is a similar activity as that measured in the primary assay. To address this shortcoming, compounds that are positive in both XylE- and luciferase-based assays can be subjected to a second counter screen as described hereinbelow.
S. aureus strains harboring the appropriate reporter construct were inoculated into 500 μl of TSB containing 10 μg/ml chloramphenicol in 1.5 ml tubes. Cultures were grown O/N at 37° C. with shaking. Bacteria were pelleted by centrifugation and spent medium was aspirated. The pellet was washed once with 500 μl of 20 mM potassium phosphate, pH 7.6, and resuspended in 150 μl of 100 mM potassium phosphate buffer, pH 8.0, 10% (v/v) acetone, 25 μg/ml lysostaphin. After 20 minute incubation at 37° C. and 5 minute incubation on ice, samples were centrifuged at 20,000 g for 30 minutes at 4° C. 1-10 μl of supernatant was added to a 96-well plate and 200 μl of 100 mM potassium phosphate, pH 8.0, 0.2 mM pyrocatechol was added to each well. Formation of 2-hydroxymuconic semialdehyde was tracked by measuring the absorbance at 375 nm every minute for 30 minutes on a Varian MP 50 microplate reader. Protein concentration in samples was determined by BCA (Pierce). One unit of specific activity of XylE in a sample is defined as the formation of 1 nmol of 2-hydroxymuconic semialdehyde per minute per milligram of cellular protein at 30° C. (Chien, Y., Manna, A. C., Projan, S. J., and Cheung, A. L. 1999, “SarA, a global regulator of virulence determinants in Staphylococcus aureus, binds to a conserved motif essential for sar-dependent gene regulation. J. Biol. Chem. 274, 37169-37176).
The hrtAB intergenic region was fused to the xylE structural gene by PCR-SOE. In the first reaction, primer P1B:[…] and P2B:[…] were used to amplify the hrtAB intergenic region from S. aureus strain Newman genomic DNA. In the second PCR reaction primers P3B:[…] and P4B:[…] were used to amplify the xylE structural gene using pALC1639 template DNA (provided by Dr. Ambrose Cheung) and PCR product purified using a Qiagen gel extraction kit. For the PCRSOE reaction, a 1:300 dilution of purified reaction 1 and reaction 2 PCR products was mixed and amplified by PCR using […]. This yielded a construct in which the hrtAB intergenic region is fused to the xylE gene in such a manner that the position of the start codon for xylE corresponds to the position of the start codon for […] in the hrtAB locus. The hrtAB promoter-xylE fusion DNA was then subcloned into pOS1. As a control we also constructed a promoterless xylE vector. The xylE gene was amplified from pACL1639 template DNA using the primers P1C:[…] and P2C:[…] and then cloned into the pOS1 vector.
(In general: A reporter such as luciferase makes a cellular process visible.)

For `O=[N+]([O-])c1ccc(O)c(/C=N/c2ccccc2-c2nc3ccccc3s2)c1`, in assay [1], the activation at 0.0825 µM came to 630% and the Luminescence is on record as 2904. In assay [2], the “XylE (0.05)” value was determined as 1, the “XylE (0.5)” value amounted to 50, the “XylE (5.0)” value is reported as 1 and the “XylE (50.0)” value is reported as 1.

Turning to `CCN(CC)S(=O)(=O)c1cc(C(=O)NC2CCCCCC2)ccc1Cl`, in assay [1], the activation at 0.0825 µM was 759% and the Luminescence is recorded as 2080. Also, in assay [2], the “XylE (0.05)” value is 1, the “XylE (0.5)” value is 1, the “XylE (5.0)” value was determined as 1 and the “XylE (50.0)” value is reported as 0.05.

On to `CCOC(=O)c1c(C)[nH]c2c1-c1cc(Br)ccc1C(=O)C2=O`, for which, in assay [1], the activation at 0.0825 µM turned out to be 240% and the Luminescence came to 2896. Besides, in assay [2], the “XylE (0.05)” value came to 1, the “XylE (0.5)” value stood at 1, the “XylE (5.0)” value was determined as 0.09 and the “XylE (50.0)” value is recorded as 0.3.

With `COc1cccc(-c2cc(C(=O)Nc3ccccc3C(F)(F)F)c3ccccc3n2)c1`, in assay [1], the activation at 0.0825 µM was 450% and the Luminescence is reported as 1642. For the same molecule, in assay [2], the “XylE (0.5)” value amounted to 0, the “XylE (5.0)” value is recorded as 0.05 and the “XylE (50.0)” value is reported as 0.09.

For the molecule `O=C(Nc1ccc(C(F)(F)F)cc1)c1cc(S(=O)(=O)NCc2ccc(F)cc2)ccc1F`, in assay [1], the activation at 0.0825 µM was 493% and the Luminescence was 1710. Moreover, in assay [2], the “XylE (0.5)” value is 0, the “XylE (5.0)” value was 0.03 and the “XylE (50.0)” value is 0.03.

For the molecule `O=c1oc2ccccc2c(O)c1C(c1ccc([N+](=O)[O-])o1)c1c(O)c2ccccc2oc1=O`, in assay [1], the activation at 0.0825 µM was 559% and the Luminescence worked out at 1939. Also, in assay [2], the “XylE (0.5)” value is 0.02, the “XylE (5.0)” value stood at 0.07 and the “XylE (50.0)” value stood at 0.

Consider `COc1ccc(/C=C/c2nc3ccccc3c(=O)n2-c2cccc(C(=O)O)c2)cc1`, for which, in assay [1], the activation at 0.0825 µM turned out to be 705% and the Luminescence was found to be 1995. In assay [2], the “XylE (0.5)” value worked out at 0.04, the “XylE (5.0)” value was determined as 0.08 and the “XylE (50.0)” value came out at 0.05.

Take `COc1cc(OC)cc(C(=O)Nc2ccc(-c3nc4cc(C)ccc4o3)cc2)c1`: in assay [1], the activation at 0.0825 µM was 345% and the Luminescence is reported as 1765. Also, in assay [2], the “XylE (0.5)” value stood at 0.1, the “XylE (5.0)” value was determined as 0.6 and the “XylE (50.0)” value was 0.

For `COc1cc(/C=C/c2ccc3cccc(O)c3n2)c(Cl)cc1O`, in assay [1], the activation at 0.0825 µM turned out to be 533% and the Luminescence was found to be 1722. For the same molecule, in assay [2], the “XylE (0.5)” value worked out at 1, the “XylE (5.0)” value stood at 0.5 and the “XylE (50.0)” value was determined as 0.

Take `Oc1ccccc1-c1nc(NC2CCCC2)c2ccccc2n1`: in assay [1], the activation at 0.0825 µM amounted to 591% and the Luminescence came out at 1637. Besides, in assay [2], the “XylE (0.5)” value is recorded as 0.09, the “XylE (5.0)” value turned out to be 0.02 and the “XylE (50.0)” value amounted to 0.

As to `O=C(Nc1ccncc1)c1ccc(COc2cc(Cl)ccc2Cl)cc1`, in assay [1], the activation at 0.0825 µM came out at 597% and the Luminescence is 1845. Moreover, in assay [2], the “XylE (0.5)” value was 1, the “XylE (5.0)” value is recorded as 0.4 and the “XylE (50.0)” value was found to be 1.

As to `O=C(NC(=S)Nc1ccc(Oc2ccccc2)cc1)c1cccs1`, in assay [1], the activation at 0.0825 µM was 415% and the Luminescence stood at 1774. Besides, in assay [2], the “XylE (0.5)” value worked out at 0.01, the “XylE (5.0)” value is listed as 0.09 and the “XylE (50.0)” value is on record as 0.01.

As for `O=C(Nc1ccncc1)c1ccc(COc2ccccc2Cl)cc1`, in assay [1], the activation at 0.0825 µM stood at 478% and the Luminescence was found to be 1589. Besides, in assay [2], the “XylE (0.5)” value amounted to 0.09, the “XylE (5.0)” value stood at 0 and the “XylE (50.0)” value is given as 1.

In the case of `COC(=O)CCNc1nc(-c2ccc(Br)cc2)nc2ccccc12`, in assay [1], the activation at 0.0825 µM worked out at 484% and the Luminescence was 1714. Besides, in assay [2], the “XylE (0.5)” value turned out to be 0.03, the “XylE (5.0)” value was determined as 0.02 and the “XylE (50.0)” value turned out to be 0.8.

Regarding `c1cc(-c2ccc3nsnc3c2)c2cc3nsnc3cc2c1`, in assay [1], the activation at 0.0825 µM came to 347% and the Luminescence was 1630. For the same molecule, in assay [2], the “XylE (0.5)” value is reported as 0.06, the “XylE (5.0)” value is given as 0 and the “XylE (50.0)” value was determined as 0.9.

For `Cc1cccc(C(=O)N2N=C(c3cccc(Br)c3)CC2(C)C(F)(F)F)c1` (stereo not drawn), in assay [1], the activation at 0.0825 µM amounted to 572% and the Luminescence was determined as 1683. Moreover, in assay [2], the “XylE (0.5)” value is listed as 0.04, the “XylE (5.0)” value is 0.08 and the “XylE (50.0)” value is reported as 0.1.

Regarding `Cc1cc(C)c(S(=O)(=O)Nc2ccc(O)c(-c3c(O)ccc4ccccc34)c2)cc1C`, in assay [1], the activation at 0.0825 µM was found to be 354% and the Luminescence is listed as 1574. In addition, in assay [2], the “XylE (0.5)” value turned out to be 0.03, the “XylE (5.0)” value was 0.06 and the “XylE (50.0)” value is reported as 0.05.

For `O=C(Nc1ccccc1O)c1cccc(N2C(=O)c3ccc([N+](=O)[O-])cc3C2=O)c1`, in assay [1], the activation at 0.0825 µM is 675% and the Luminescence is 1850. For the same molecule, in assay [2], the “XylE (0.5)” value came to 0.02, the “XylE (5.0)” value came out at 0 and the “XylE (50.0)” value was found to be 0.03.
